Active and inactive are the calls of the source.
Assays:
[1] = luciferase reporter signal reduction – luminescence, H4-C neuroglioblastoma cells, dose response (AID 2458); assay type: functional, cell-based;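 also: H4 neuroglioblastoma cells stably carrying a luciferase reporter gene fusion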
[2] = cells; assay type: functional
[3] = cytotoxicity in HEK-293T cells, dose response, cytotoxicity control for TCR NF-kB inhibitor project, luminescence, T-cell screen hits (AID 489026); assay type: functional, cell-based;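 also: cells exposed to compound about 14 hours before the viability readout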
[4] = THP-1 cell cytotoxicity, dose response, cytotoxicity control for non-replicating M. tuberculosis project (AID 489025); assay type: functional
[5] = inhibitors of SNCA 5'UTR-driven translation, confirmation, luminescence, H4 neuroglioblastoma cells, dose confirmation (AID 2454); assay type: functional, cell-based;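 also: H4 neuroglioblastoma cells carrying an alpha-synuclein 5'UTR luciferase reporter; potency for inhibition of the luciferase signal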
[6] = target: T1, DNA repair and recombination protein RAD54-like (Homo sapiens, UniProt Q92698); assay: inhibitors of human RAD54 branch migration, confirmation, biochemical, fluorescence, cherry-picked samples, dose series (AID 651657); assay type: functional
T1 sequence (Q92698 whole entry): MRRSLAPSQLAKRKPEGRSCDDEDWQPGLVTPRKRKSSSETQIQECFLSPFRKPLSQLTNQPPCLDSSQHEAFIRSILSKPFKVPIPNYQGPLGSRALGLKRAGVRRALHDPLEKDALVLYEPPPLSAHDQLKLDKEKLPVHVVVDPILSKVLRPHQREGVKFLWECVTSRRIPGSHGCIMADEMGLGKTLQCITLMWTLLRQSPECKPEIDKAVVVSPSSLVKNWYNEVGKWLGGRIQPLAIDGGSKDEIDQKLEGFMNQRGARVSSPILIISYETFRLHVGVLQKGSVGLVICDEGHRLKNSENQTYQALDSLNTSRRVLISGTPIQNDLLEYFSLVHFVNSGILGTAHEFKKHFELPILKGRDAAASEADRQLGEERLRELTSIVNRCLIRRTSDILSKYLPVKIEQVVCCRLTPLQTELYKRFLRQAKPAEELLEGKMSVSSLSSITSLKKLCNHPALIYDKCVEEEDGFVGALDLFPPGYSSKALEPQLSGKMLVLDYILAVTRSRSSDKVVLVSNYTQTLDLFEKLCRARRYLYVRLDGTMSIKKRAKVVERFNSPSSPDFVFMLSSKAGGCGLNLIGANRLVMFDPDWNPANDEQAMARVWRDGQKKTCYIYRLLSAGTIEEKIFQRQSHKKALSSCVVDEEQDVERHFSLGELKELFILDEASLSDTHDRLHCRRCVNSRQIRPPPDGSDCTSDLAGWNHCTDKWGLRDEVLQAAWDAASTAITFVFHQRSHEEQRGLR

[7] = HepG2 cell cytotoxicity, dose response, cytotoxicity control for non-replicating M. tuberculosis project (AID 489018); assay type: functional; conditions: Mycobacterium tuberculosis
[8] = test system: Streptococcus; assay: Group A Streptococcus viability loss, dose response, counter-screen for streptokinase expression inhibitor project, luminescence, BacTiterGlo (AID 1915); assay type: functional, organism-based;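 also: potency for reduction of bacterial viability or growth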
[9] = target: T2, Heat shock factor protein 1 (Mus musculus, UniProt P38532); assay: HSF1 potentiators in luciferase reporter cells, confirmation, cell-based, NIH3T3, luminescence, dose retest (AID 435004); assay type: functional;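 also: stress induced by proteasome inhibitor MG132 added 30 min after compound; luciferase reporter driven by HSF1 response element in NIH3T3 cells; actives raise luminescence as potentiators of the MG132 stress response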
T2 sequence (P38532 whole entry): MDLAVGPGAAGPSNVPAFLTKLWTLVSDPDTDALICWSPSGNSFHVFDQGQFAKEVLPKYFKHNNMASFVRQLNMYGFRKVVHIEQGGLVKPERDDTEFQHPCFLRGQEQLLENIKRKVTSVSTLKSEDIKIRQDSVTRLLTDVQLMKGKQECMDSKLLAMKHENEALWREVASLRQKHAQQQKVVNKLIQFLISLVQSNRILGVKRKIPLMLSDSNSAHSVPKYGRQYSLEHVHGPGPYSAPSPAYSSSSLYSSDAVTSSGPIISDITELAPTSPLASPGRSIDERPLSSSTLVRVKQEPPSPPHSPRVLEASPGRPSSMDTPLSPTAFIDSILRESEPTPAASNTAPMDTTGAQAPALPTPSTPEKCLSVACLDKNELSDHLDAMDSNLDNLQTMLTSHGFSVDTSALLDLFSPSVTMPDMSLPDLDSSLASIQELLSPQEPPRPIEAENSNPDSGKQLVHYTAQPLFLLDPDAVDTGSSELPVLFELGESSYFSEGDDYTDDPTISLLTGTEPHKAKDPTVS

[10] = cells; assay type: functional, cell-based
[11] = inhibitors of SNCA 5'UTR-driven reporter translation, confirmation, H4 neuroglioma cells, luminescence (AID 1988); assay type: functional, cell-based
[12] = inhibitors of firefly luciferase expression or activity, dose response, H4 neuroglioma cells, luminescence (AID 1990); assay type: functional, cell-based
[13] = Vero E6 cell cytotoxicity, dose response, cytotoxicity control for non-replicating M. tuberculosis project, secondary assay (AID 492998); assay type: functional, VeroE6; conditions: Vero C1008
[14] = test system: Streptococcus sp. 'group A'; assay: growth inhibition of control SK(-) GAS strain, dose response, counter-screen for streptokinase expression inhibitor project, luminescence, kanamycin, BacTiterGlo, confirmation (AID 1900); assay type: functional, organism-based
[15] = target: T3, Nucleotide-binding oligomerization domain-containing protein 1 (Homo sapiens, UniProt Q9Y239); assay: NOD1 signaling inhibitors, SAR follow-up, revised (AID 2333); assay type: functional
T3 sequence (Q9Y239 whole entry): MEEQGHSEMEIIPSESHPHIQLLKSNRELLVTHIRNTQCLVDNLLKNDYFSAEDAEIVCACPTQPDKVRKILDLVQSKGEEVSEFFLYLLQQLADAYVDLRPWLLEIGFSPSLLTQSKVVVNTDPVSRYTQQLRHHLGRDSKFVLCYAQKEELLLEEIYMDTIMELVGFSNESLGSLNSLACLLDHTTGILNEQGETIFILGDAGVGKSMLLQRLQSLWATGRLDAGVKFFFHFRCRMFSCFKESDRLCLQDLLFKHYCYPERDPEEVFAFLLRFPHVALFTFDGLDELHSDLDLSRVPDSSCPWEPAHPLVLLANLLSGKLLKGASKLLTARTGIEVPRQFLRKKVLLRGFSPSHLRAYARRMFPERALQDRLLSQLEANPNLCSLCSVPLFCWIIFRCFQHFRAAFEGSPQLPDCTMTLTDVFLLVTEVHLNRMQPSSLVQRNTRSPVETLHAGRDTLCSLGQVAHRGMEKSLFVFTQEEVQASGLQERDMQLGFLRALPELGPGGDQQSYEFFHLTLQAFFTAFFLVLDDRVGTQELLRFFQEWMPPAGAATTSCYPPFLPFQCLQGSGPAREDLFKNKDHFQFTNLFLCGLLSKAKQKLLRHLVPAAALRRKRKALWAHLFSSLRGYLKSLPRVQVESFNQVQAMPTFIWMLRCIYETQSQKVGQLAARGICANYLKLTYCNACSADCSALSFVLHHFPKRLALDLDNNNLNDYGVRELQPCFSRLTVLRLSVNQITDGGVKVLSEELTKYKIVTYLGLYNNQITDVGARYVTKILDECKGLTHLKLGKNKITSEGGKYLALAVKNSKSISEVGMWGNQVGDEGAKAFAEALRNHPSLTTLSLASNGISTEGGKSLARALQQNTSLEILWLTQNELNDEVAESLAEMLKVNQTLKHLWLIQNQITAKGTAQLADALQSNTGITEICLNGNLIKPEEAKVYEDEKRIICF

[16] = target: Nucleotide-binding oligomerization domain-containing protein 2 (Homo sapiens, UniProt Q9HC29); assay: PubChem AID 2334; assay type: functional
Chain of Nucleotide-binding oligomerization domain-containing protein 2 (Q9HC29 whole entry, the tested form may be a part): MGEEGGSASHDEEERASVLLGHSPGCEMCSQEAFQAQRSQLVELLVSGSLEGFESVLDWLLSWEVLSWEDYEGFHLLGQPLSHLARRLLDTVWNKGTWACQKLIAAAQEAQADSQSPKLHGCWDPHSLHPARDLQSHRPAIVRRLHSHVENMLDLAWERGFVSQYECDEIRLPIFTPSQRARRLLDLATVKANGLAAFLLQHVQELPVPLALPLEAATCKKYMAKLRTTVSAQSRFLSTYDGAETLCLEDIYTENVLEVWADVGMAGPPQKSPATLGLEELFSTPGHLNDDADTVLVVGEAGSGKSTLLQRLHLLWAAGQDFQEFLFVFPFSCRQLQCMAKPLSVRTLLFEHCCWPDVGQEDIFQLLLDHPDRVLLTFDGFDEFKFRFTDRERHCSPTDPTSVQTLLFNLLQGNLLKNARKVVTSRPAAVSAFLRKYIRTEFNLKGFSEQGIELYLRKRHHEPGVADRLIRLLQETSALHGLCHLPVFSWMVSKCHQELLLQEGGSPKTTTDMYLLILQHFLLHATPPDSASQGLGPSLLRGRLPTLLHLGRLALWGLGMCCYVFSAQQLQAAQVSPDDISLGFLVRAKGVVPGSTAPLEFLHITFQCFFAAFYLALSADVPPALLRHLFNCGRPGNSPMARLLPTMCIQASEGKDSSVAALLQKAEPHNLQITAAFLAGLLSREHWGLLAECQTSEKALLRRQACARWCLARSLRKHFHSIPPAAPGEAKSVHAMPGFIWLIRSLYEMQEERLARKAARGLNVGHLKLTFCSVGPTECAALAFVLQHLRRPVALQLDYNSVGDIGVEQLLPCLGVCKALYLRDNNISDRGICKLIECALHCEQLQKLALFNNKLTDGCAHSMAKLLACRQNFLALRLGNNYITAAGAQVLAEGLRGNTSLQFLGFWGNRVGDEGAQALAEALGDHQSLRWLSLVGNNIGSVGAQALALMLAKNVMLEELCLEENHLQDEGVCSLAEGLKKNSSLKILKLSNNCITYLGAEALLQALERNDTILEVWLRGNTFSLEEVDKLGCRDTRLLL

[17] = target: T4, Streptokinase A (Streptococcus pyogenes serotype M1, UniProt P10520); assay: S. pyogenes streptokinase expression inhibitors, potency, dose response, plasminogen activation absorbance, OD405 (AID 1914); assay type: functional, Streptococcus pyogenes M1 GAS;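 also: secreted streptokinase activity via plasminogen activation per viability signal from cell pellet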
T4 sequence (P10520 whole entry): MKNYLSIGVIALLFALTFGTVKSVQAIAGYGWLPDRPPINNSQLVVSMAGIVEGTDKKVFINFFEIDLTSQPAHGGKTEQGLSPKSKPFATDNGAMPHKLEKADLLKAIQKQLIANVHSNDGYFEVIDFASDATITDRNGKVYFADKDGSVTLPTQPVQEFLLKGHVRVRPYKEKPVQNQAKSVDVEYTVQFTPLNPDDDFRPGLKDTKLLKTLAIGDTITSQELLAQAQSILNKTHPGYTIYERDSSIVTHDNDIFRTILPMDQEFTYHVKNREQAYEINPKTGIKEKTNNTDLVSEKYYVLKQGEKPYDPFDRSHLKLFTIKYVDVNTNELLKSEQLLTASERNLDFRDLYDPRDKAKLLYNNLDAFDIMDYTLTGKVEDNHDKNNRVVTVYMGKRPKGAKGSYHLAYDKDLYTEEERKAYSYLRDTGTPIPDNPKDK

[18] = target: Tumor necrosis factor (Homo sapiens, UniProt P01375); assay: TNFa-triggered NF-kB activation inhibitors, SAR follow-up, cell-based, revised (AID 2337); assay type: functional
Chain of Tumor necrosis factor (P01375 whole entry): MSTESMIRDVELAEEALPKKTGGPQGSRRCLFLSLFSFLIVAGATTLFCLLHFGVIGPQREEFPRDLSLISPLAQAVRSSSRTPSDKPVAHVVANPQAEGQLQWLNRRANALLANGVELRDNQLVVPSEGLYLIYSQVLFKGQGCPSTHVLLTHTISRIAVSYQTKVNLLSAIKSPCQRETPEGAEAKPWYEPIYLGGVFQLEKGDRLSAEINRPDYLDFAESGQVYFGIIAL

[19] = target: T5, Corticotropin-releasing factor receptor 2/Corticotropin-releasing factor-binding protein (Homo sapiens, UniProt P24387+Q13324); assay: activators of CRF receptor 2 with binding protein – uHTS hits, confirmation (AID 602473); assay type: functional; conditions: read-out: EC50_Mean
T5 sequence (Q13324 whole entry): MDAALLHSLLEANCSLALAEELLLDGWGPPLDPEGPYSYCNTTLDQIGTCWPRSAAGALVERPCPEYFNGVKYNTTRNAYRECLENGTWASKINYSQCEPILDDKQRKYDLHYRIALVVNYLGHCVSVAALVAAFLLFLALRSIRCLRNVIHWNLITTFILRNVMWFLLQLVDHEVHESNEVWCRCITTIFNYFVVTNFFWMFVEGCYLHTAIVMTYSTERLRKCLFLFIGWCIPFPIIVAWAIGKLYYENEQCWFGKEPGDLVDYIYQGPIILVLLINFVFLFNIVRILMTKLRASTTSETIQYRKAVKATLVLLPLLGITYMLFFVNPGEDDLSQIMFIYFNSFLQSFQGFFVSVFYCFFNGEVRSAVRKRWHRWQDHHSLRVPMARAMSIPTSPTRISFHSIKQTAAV
T5 sequence (P24387 whole entry): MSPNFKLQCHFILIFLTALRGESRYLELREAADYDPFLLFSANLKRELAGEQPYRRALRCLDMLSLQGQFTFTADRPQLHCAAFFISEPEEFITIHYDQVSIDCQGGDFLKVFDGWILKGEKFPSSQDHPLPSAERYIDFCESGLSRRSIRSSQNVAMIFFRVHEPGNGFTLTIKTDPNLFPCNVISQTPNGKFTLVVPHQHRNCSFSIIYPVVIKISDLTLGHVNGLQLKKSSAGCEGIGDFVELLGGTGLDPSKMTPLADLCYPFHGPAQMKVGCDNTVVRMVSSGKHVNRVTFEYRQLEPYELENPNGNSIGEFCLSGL

[20] = target: T5, Corticotropin-releasing factor receptor 2/Corticotropin-releasing factor-binding protein; assay: Dose Response confirmation of uHTS hits for small molecule antagonists of the CRF-binding protein and CRF-R2 receptor complex.; assay type: functional; conditions: read-out: IC50_Mean
[21] = target: Neuropeptides B/W receptor type 1 (Homo sapiens, UniProt P48145); assay: Fluorescence-based dose response cell-based high throughput screening assay to identify antagonists of the G-protein coupled receptor 7 (GPR7). [Related pubchem assays: 1952 (Screening assay (GPR7 antagonists).), 1880 (Summary AID.)]; assay type: functional
Chain of Neuropeptides B/W receptor type 1 (P48145 whole entry): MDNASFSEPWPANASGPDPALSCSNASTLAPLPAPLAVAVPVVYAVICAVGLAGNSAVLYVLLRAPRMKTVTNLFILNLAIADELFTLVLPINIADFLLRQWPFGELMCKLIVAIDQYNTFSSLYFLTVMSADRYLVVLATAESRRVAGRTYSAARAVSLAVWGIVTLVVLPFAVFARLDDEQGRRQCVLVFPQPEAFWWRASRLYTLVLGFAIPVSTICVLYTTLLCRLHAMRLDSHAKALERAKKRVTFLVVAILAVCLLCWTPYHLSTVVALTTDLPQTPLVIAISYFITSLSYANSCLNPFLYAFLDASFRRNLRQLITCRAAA

[22] = target: Melanin-concentrating hormone receptor 1 (Homo sapiens, UniProt Q99705); assay: Fluorescence-based counterscreen for antagonists of the G-protein coupled receptor 7 (GPR7): cell-based high throughput dose response assay to identify antagonists of the melanin-concentrating hormone receptor 1 (MCHR1).; assay type: functional
Chain of Melanin-concentrating hormone receptor 1 (Q99705 whole entry): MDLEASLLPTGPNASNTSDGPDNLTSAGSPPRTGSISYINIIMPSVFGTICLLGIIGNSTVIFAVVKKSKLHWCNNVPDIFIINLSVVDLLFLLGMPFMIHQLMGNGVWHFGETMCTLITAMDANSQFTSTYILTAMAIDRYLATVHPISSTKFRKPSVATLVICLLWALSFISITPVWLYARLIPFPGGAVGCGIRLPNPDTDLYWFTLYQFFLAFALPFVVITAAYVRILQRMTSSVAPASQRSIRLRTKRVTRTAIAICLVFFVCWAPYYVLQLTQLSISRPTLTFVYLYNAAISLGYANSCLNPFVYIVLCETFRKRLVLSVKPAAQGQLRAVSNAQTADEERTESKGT

[23] = Luminescence Cell-Based Dose Response HTS to Identify Activators of Luciferase Translation or Activity in H4 […] Cells. [Related pubchem assays: 1829 (Project Summary), 1814 (Primary HTS)]; assay type: functional
[24] = target: Cyclin-dependent kinase 5/CDK5 activator 1 (Homo sapiens, UniProt Q00535); assay: CDK5/p35 kinase inhibitors, dose response, biochemical, cherry-picked samples, set 2 (AID 504545)
Chain of Cyclin-dependent kinase 5/CDK5 activator 1 (Q00535 whole entry): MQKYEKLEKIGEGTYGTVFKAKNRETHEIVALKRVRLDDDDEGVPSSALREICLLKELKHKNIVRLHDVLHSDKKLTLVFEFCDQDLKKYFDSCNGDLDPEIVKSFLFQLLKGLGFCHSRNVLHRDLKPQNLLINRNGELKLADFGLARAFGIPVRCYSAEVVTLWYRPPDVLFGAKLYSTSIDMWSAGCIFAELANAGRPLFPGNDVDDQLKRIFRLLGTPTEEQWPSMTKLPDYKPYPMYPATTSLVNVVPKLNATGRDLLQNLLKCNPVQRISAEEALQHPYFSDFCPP
Chain of Cyclin-dependent kinase 5/CDK5 activator 1 (Q15078 whole entry, further chain): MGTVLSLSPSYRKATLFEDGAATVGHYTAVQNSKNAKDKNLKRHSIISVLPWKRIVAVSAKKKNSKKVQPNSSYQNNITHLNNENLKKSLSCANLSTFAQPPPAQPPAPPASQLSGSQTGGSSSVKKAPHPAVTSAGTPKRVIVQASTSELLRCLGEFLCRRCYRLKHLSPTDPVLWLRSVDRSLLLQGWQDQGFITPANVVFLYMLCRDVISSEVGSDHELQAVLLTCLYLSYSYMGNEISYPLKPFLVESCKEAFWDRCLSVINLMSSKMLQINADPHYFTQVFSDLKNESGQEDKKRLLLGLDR

[25] = target: DNA dC->dU-editing enzyme APOBEC-3G (Homo sapiens, UniProt Q9HC16); assay: Dose Response confirmation of small molecule APOBEC3G DNA Deaminase Inhibitors via a fluorescence-based single-stranded DNA deaminase assay. [Related pubchem assays (depositor defined):AID493012, AID493028]; assay type: functional
Chain of DNA dC->dU-editing enzyme APOBEC-3G (Q9HC16 whole entry): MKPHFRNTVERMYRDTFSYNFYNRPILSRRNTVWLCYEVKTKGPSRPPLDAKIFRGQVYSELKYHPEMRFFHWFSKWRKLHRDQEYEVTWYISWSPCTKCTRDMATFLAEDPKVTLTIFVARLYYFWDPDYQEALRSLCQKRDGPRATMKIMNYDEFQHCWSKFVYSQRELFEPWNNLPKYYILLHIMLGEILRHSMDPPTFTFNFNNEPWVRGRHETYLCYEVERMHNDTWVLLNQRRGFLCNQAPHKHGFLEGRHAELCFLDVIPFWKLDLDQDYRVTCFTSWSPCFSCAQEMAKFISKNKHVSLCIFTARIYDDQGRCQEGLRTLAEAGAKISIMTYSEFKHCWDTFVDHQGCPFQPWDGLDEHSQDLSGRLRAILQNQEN

[26] = target: X-box-binding protein 1 (Homo sapiens, UniProt P17861); assay type: functional, Cricetulus griseus;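 also: confirmatory dose-response counter-screen serving a CHOP assay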
Chain of X-box-binding protein 1 (P17861 whole entry): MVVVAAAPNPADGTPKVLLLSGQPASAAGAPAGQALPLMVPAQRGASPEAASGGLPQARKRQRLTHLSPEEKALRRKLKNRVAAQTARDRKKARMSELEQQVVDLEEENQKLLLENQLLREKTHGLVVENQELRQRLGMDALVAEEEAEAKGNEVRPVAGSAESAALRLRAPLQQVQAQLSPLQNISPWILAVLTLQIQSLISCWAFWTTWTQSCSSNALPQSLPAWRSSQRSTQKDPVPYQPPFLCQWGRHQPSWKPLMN

[27] = Luminescence Cell-Based Dose Retest to Confirm Inhibitors of Cancer Stem Cells. [Related pubchem assays (depositor defined):AID2717, AID2721]; assay type: functional; conditions: Homo sapiens

SMILES: COC(=O)c1c(NC(=O)c2ccc([N+](=O)[O-])o2)sc2c1CCN(C(C)C)C2
- EC50 [1]: 1.29 µM (active)
- IC50 [2]: 0.65 µM (active)
- IC50 [3]: > 80 µM (inactive)
- CC50 [4]: 1.5 µM (active)
- EC50 [5]: 1.52 µM (active)
- AC50 [6]: 43.4 µM (active)
- CC50 [7]: 6.72 µM (active)
- EC50 [8]: 7.32 µM (active)
- EC50 [9]: 26 µM (active)
- EC50 [10]: 11.8 µM (active)
- EC50 [11]: < 0.1 µM (active)
- EC50 [12]: > 120 µM (not active)
- CC50 [13]: 0.37 µM (active)
- EC50 [14]: 4.11 µM (active)

SMILES: Cc1ccc(SCc2cc(=O)[nH]c(SCC(=O)Nc3cc(Cl)ccc3Cl)n2)cc1
- IC50 [15]: 7.37 µM (active)
- IC50 [16]: 9.95 µM (active)
- EC50 [17]: 42.6 µM (inconclusive)
- IC50 [18]: 8.65 µM (active)
- EC50 [19]: > 53 µM (inactive)
- IC50 [20]: 5.65 µM (active)

SMILES: O=C(NC1CCCCCCC1)C1c2ccccc2C(=O)N1Cc1cccs1 (stereo not drawn)
- IC50 [21]: > 43.8 µM (not active)
- IC50 [22]: 15.9 µM (not active)

SMILES: Nc1nc(Nc2ccccc2F)sc1C(=O)c1ccccc1
- EC50 [23]: 0.159 µM (active)
- AC50 [24]: 60 µM (active)

SMILES: Cc1cccc(Nc2nc(N)c([N+](=O)[O-])c(NCCO)n2)c1
- AC50 [24]: 15.2 µM (active)

SMILES: CC(=O)c1sc2nsc(SCCN3CCOCC3)c2c1N
- IC50 [25]: 34.4 µM (active)

SMILES: Cc1[nH]c2ccccc2c1/C=N/NC(=O)C1CC1(c1ccccc1)c1ccccc1 (stereo not drawn)
- Absolute IC50 (XBP1) [26]: 10 µM
- AC50 [27]: 3.79 µM (active)

From ChEMBL document CHEMBL1201862, “PubChem BioAssay data set” (2004)
